The source of these data is patent US4962224A, “N-naphthoylglycines as aldose reductase inhibitors” (American Home Products Corporation, priority 1989, dated 1990).

The target in one assay is T1, aldose reductase (Bos taurus, UniProt P16116).
T1 construct: preparation of the enzyme from bovine lens; from tissue; host or cells: bovine lens
In words: aldose reductase inhibiting effects in vitro (Table I, IN VITRO). As to conditions: read-out: % Inhibition IN VITRO; for inhibition at 0.04 µM: 4 × 10^-8 M. Type of assay: biochemical, bovine (lens). The source says:
In the present case the procedure of Hayman and Kinoshita was modified in that the final chromatography step was omitted in the preparation of the enzyme from bovine lens. The results are tabulated in Table I under the heading IN VITRO.

The test system of another assay is dulcitol accumulation. The assay can be described thus: lowering of dulcitol (galactitol) accumulation in tissues of galactosemic rats (Table I, IN VIVO). Set-up: species or system rat (Sprague-Dawley). The note with it: galactosemic rats, 4 days; for % Lowering dulcitol accumulation IN VIVO, D: diaphragm; for % Lowering dulcitol accumulation IN VIVO, L: lens. The text has this:
Such experiments are exemplified hereinbelow after the listing of the following general comments pertaining to these experiments:
(a) Four or more groups of six male rats, […], Sprague-Dawley strain, were used. The first group, the control group, was fed a mixture of laboratory chow (rodent Laboratory Chow, Purina) and […] at 20% (w/w %) concentration. […] The test compound was either admixed to the diet or administered by gavage. In experiments involving compound administration in the diet, the average dose administered was calculated from the actual food intake of the animals in each group. The concentration of galactose in the diet of the treated groups was the same as that for the untreated galactosemic group.
(b) After four days, the animals were killed by decapitation. The eyeballs were removed and punctured with a razor blade; the freed lenses were rolled gently on filter paper and weighed. The sciatic nerves were dissected as completely as possible and weighed. Both tissues when frozen can be kept up to two weeks before being analyzed for galactitol.
Only two minor reagent changes were made: (a) the rinsing mixture was an aqueous 5% (w/v) trichloroacetic acid solution and (b) the stock solution was prepared by dissolving 25 mg of dulcitol in 100 mL of an aqueous trichloroacetic acid solution. [N.B.: For each experiment the average value found in the tissue from rats fed the glucose diet was subtracted from the individual values found in the corresponding tissue in galactose-fed rats to obtain the amount of polyol accumulated.]
The figures under L, N, and D represent the percentage decrease of galactitol accumulation in the tissues of the lens, sciatic nerve, and diaphragm, respectively, for treated rats as compared to untreated rats.

Where two headings read alike, the source gives them in different places.

As usually defined, the inhibition is how much of the control response was suppressed. In the case of `COc1ccc2c(C(=S)N(C)CC(=O)O)c(OCc3ccccc3)ccc2c1C(F)(F)F`, at aldose reductase, the inhibition at 0.04 µM came out at 45%, the inhibition at 1 µM is 96% and the inhibition at 10 µM was determined as 96%. The inhibition at 0.1 µM at aldose reductase (10^-7 M) stood at 84%.
As to `COc1ccc2c(C(=O)N(C)CC(=O)O)c(Cl)ccc2c1C(F)(F)F` [Cl O OH, N-[[2-Chloro-6-methoxy-5-(trifluoromethyl)-1-naphthalenyl]carbonyl]-N-methylglycine], the inhibition at 0.04 µM at aldose reductase came out at 36%. Also, on aldose reductase (10^-5 M), the inhibition at 10 µM was determined as 90%. Also, at aldose reductase (10^-6 M), the inhibition at 1 µM was 87%. Further, the inhibition at 0.1 µM on aldose reductase (10^-7 M) was 63%.
Regarding `COc1ccc2c(C(=O)N(C)CC(N)=O)c(Cl)ccc2c1C(F)(F)F` [Example 2, [[[2-Chloro-6-methoxy-5-(trifluoromethyl)-1-naphthalenyl]carbonyl]methylamino]acetamide], on aldose reductase (10^-5 M), the inhibition at 10 µM was found to be 9%. Moreover, the inhibition at 1 µM on aldose reductase (10^-6 M) was 0%. In the assay with dulcitol accumulation (24 mg/kg), the “% Lowering dulcitol accumulation IN VIVO, D” value was 53% and the “% Lowering dulcitol accumulation IN VIVO, L” value is recorded as “N.S”.
Regarding `COc1ccc2c(C(=O)N(C)CC(=O)O)c(OCC(F)(F)F)ccc2c1C(F)(F)F` [Example 3, N-[[6-Methoxy-2-(2,2,2-trifluoroethoxy)-5-(trifluoromethyl)-1-naphthalenyl]carbonyl]-N-methylglycine], on aldose reductase, the inhibition at 0.04 µM stood at 32% and the inhibition at 10 µM came to 96%. In addition, the inhibition at 1 µM on aldose reductase (10^-6 M) was 91%. In addition, on aldose reductase (10^-7 M), the inhibition at 0.1 µM was determined as 67%.
With `CCOc1ccc2c(C(F)(F)F)c(OC)ccc2c1C(=S)N(C)CC(=O)O` [Example 4, N-[[2-Ethoxy-6-methoxy-5-(trifluoromethyl)-1-naphthalenyl]thioxomethyl]-N-methylglycine], on aldose reductase, the inhibition at 0.04 µM was determined as 50% and the inhibition at 10 µM was 98%. On aldose reductase (10^-6 M), the inhibition at 1 µM is 95%. In addition, at aldose reductase (10^-7 M), the inhibition at 0.1 µM was found to be 87%. Besides, in the assay with dulcitol accumulation (28 mg/kg), the “% Lowering dulcitol accumulation IN VIVO, D” value is given as 85% and the “% Lowering dulcitol accumulation IN VIVO, L” value was “N.S”.
For the molecule `COc1ccc2c(C(=S)N(C)CC(=O)O)c(OCC(F)(F)F)ccc2c1C(F)(F)F` [Example 5, N-[[6-Methoxy-2-(2,2,2-trifluoroethoxy)-5-(trifluoromethyl)-1-naphthalenyl]thioxomethyl]-N-methylglycine], on aldose reductase, the inhibition at 0.04 µM was determined as 49% and the inhibition at 10 µM came out at 99%. Further, the inhibition at 1 µM on aldose reductase (10^-6 M) was 95%. In addition, the inhibition at 0.1 µM on aldose reductase (10^-7 M) came to 87%. In addition, in the assay on dulcitol accumulation (26 mg/kg), the “% Lowering dulcitol accumulation IN VIVO, D” value worked out at 88% and the “% Lowering dulcitol accumulation IN VIVO, L” value is on record as “N.S”.
Regarding `CCOc1ccc2c(C(F)(F)F)c(OC)ccc2c1C(=O)N(C)CC(=O)O` [Example 6, N-[[2-Ethoxy-6-methoxy-5-(trifluoromethyl)-1-naphthalenyl]carbonyl]-N-methylglycine], on aldose reductase, the inhibition at 0.04 µM worked out at 33% and the inhibition at 0.1 µM worked out at 65%. Moreover, the inhibition at 10 µM on aldose reductase (10^-5 M) turned out to be 89%. Further, the inhibition at 1 µM on aldose reductase (10^-6 M) is 89%. Moreover, in the assay on dulcitol accumulation (49 mg/kg), the “% Lowering dulcitol accumulation IN VIVO, D” value is 57% and the “% Lowering dulcitol accumulation IN VIVO, L” value is “N.S”.
Take `CCCOc1ccc2c(C(F)(F)F)c(OC)ccc2c1C(=O)N(C)CC(=O)O` [Example 7, N-[[6-Methoxy-2-propoxy-5-(trifluoromethyl)-1-naphthalenyl]carbonyl]-N-methylglycine]: on aldose reductase, the inhibition at 0.04 µM was 21% and the inhibition at 0.1 µM stood at 46%. In addition, in the assay on dulcitol accumulation (50 mg/kg), the “% Lowering dulcitol accumulation IN VIVO, D” value came to 57% and the “% Lowering dulcitol accumulation IN VIVO, L” value is “N.S”.
As to `COc1ccc2c(C(=O)N(C)CC(=O)O)c(Oc3ccccc3)ccc2c1C(F)(F)F` [Example 8, N-[[6-Methoxy-2-phenoxy-5-(trifluoromethyl)-1-naphthalenyl]carbonyl]-N-methylglycine], at aldose reductase, the inhibition at 0.04 µM was 50%, the inhibition at 1 µM worked out at 93% and the inhibition at 10 µM is 93%. Also, on aldose reductase (10^-7 M), the inhibition at 0.1 µM was 83%. In addition, in the assay with dulcitol accumulation (48 mg/kg), the “% Lowering dulcitol accumulation IN VIVO, D” value was 67% and the “% Lowering dulcitol accumulation IN VIVO, L” value is “N.S”.
`COc1ccc2c(C(=O)N(C)CC(=O)O)c(Br)ccc2c1C(F)(F)F` [Example 9, N-[[2-Bromo-6-methoxy-5-(trifluoromethyl)-1-naphthalenyl]carbonyl]-N-methylglycine]: the inhibition at 10 µM at aldose reductase (10^-5 M) was 95%. Besides, the inhibition at 1 µM at aldose reductase (10^-6 M) was 90%. Also, the inhibition at 0.1 µM on aldose reductase (10^-7 M) was 63%. In addition, in the assay on dulcitol accumulation (97 mg/kg), the “% Lowering dulcitol accumulation IN VIVO, D” value is 84% and the “% Lowering dulcitol accumulation IN VIVO, L” value is listed as 8%.
Consider `COc1ccc2c(C(=S)N(C)CC(=O)O)c(Cl)ccc2c1C(F)(F)F` [Example 10, N-[[2-Chloro-6-methoxy-5-(trifluoromethyl)-1-naphthalenyl]thioxomethyl]-N-methylglycine], for which, at aldose reductase, the inhibition at 0.04 µM came out at 51%. Also, on aldose reductase (10^-5 M), the inhibition at 10 µM came out at 95%. Moreover, the inhibition at 1 µM at aldose reductase (10^-6 M) was determined as 91%. The inhibition at 0.1 µM at aldose reductase (10^-7 M) stood at 81%. Besides, in the assay on dulcitol accumulation (24 mg/kg), the “% Lowering dulcitol accumulation IN VIVO, D” value amounted to 90% and the “% Lowering dulcitol accumulation IN VIVO, L” value is “N.S”.
`CCCCOc1ccc2c(C(F)(F)F)c(OC)ccc2c1C(=O)N(C)CC(=O)O` [Example 12, N-[[2-Butoxy-6-methoxy-5-(trifluoromethyl)-1-naphthalenyl]carbonyl]-N-methylglycine]: the inhibition at 0.04 µM at aldose reductase came to 25%. The inhibition at 10 µM at aldose reductase (10^-5 M) is 92%. On aldose reductase (10^-6 M), the inhibition at 1 µM worked out at 88%. The inhibition at 0.1 µM at aldose reductase (10^-7 M) worked out at 42%. Moreover, in the assay with dulcitol accumulation (49 mg/kg), the “% Lowering dulcitol accumulation IN VIVO, D” value was 55% and the “% Lowering dulcitol accumulation IN VIVO, L” value is “N.S”.
For the molecule `CCOC(=O)NC(=O)CN(C)C(=O)c1c(F)ccc2c(C(F)(F)F)c(OC)ccc12` [F O NHCO2 C2 H5, N-[2-[(Ethoxycarbonyl)amino]-2-oxoethyl]-2-fluoro-6-methoxy-N-methyl-5-(trifluoromethyl)-1-naphthalenecarboxamide], the inhibition at 10 µM on aldose reductase (10^-5 M) was determined as 8%. The inhibition at 1 µM on aldose reductase (10^-6 M) came out at 2%. In the assay on dulcitol accumulation (22 mg/kg), the “% Lowering dulcitol accumulation IN VIVO, D” value is 55% and the “% Lowering dulcitol accumulation IN VIVO, L” value is “N.S”.
Turning to `COc1ccc2c(C(=O)N(C)CC(=O)O)c(F)ccc2c1C(F)(F)F` [F O OH, N-[[2-Fluoro-6-methoxy-5-(trifluoromethyl)-1-naphthalenyl]carbonyl]-N-methylglycine], on aldose reductase, the inhibition at 0.04 µM turned out to be 49%, the inhibition at 1 µM was 93% and the inhibition at 10 µM came to 94%. The inhibition at 0.1 µM on aldose reductase (10^-7 M) was 80%. Further, the “% Lowering dulcitol accumulation IN VIVO, L” value in the assay with dulcitol accumulation (52 mg/kg) is on record as 15%. In addition, the “% Lowering dulcitol accumulation IN VIVO, L” value in the assay on dulcitol accumulation (100 mg/kg) is recorded as 17%.
Take `COc1ccc2c(C(=S)N(C)CC(N)=O)c(F)ccc2c1C(F)(F)F` [F S NH2, [[[2-Fluoro-6-methoxy-5-(trifluoromethyl)-1-naphthalenyl]thioxomethyl]methylamino]acetamide]: the inhibition at 10 µM at aldose reductase (10^-5 M) stood at 2%. Besides, the inhibition at 1 µM at aldose reductase (10^-6 M) was determined as 6%.
As for `COc1ccc2c(C(=S)N(C)CC(=O)O)c(F)ccc2c1C(F)(F)F` [F S OH, N-[[2-Fluoro-6-methoxy-5-(trifluoromethyl)-1-naphthalenyl]thioxomethyl]-N-methylglycine], at aldose reductase, the inhibition at 0.04 µM was found to be 45%, the inhibition at 1 µM turned out to be 94% and the inhibition at 10 µM came to 99%. Further, in the assay on dulcitol accumulation (4.8 mg/kg), the “% Lowering dulcitol accumulation IN VIVO, D” value is on record as 86% and the “% Lowering dulcitol accumulation IN VIVO, L” value is on record as “N.S”. Besides, in the assay on dulcitol accumulation (25 mg/kg), the “% Lowering dulcitol accumulation IN VIVO, D” value was 93% and the “% Lowering dulcitol accumulation IN VIVO, L” value turned out to be 23%.
With `COc1ccc2c(C(=O)N(C)CC(N)=O)c(OCC(F)(F)F)ccc2c1C(F)(F)F` [OCH2 CF3 O NH2], the inhibition at 10 µM at aldose reductase (10^-5 M) was 8%. Further, the inhibition at 1 µM on aldose reductase (10^-6 M) amounted to 1%. For the same molecule, in the assay with dulcitol accumulation (24 mg/kg), the “% Lowering dulcitol accumulation IN VIVO, D” value is “N.S” and the “% Lowering dulcitol accumulation IN VIVO, L” value is “N.S”.
